Measured values from PubChem BioAssay (NCI).
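These data come from cells grown in 96-well plates and exposed to compound for 48 hours at five concentrations. TGI: concentration producing complete growth inhibition.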

Columns and labels:
Experiment in all cases: inhibition of tumour cell growth, NCI panel, 48 h
MDA-MB-435 = system: MDA-MB-435
RPMI-8226 leukemia = system: RPMI-8226 leukemia
DU-145 prostate = system: DU-145 prostate
NCI-H23 lung = system: NCI-H23 lung
UACC-257 melanoma = system: UACC-257 melanoma
PC-3 prostate = system: PC-3 prostate
UO-31 renal = system: UO-31 renal
OVCAR-3 ovarian = system: OVCAR-3 ovarian
M14 melanoma = system: M14 melanoma
SNB-19 CNS = system: SNB-19 CNS
MDA-N = system: MDA-N
SR leukemia = system: SR leukemia
NCI-H226 lung = system: NCI-H226 lung
SF-539 CNS = system: SF-539 CNS
KM12 colon = system: KM12 colon
SK-OV-3 ovarian = system: SK-OV-3 ovarian
HCT-116 colon = system: HCT-116 colon
COLO 205 colon = system: COLO 205 colon
SF-295 CNS = system: SF-295 CNS
SF-268 CNS = system: SF-268 CNS
CAKI-1 renal = system: CAKI-1 renal
TK-10 renal = system: TK-10 renal
U251 CNS = system: U251 CNS
SK-MEL-28 melanoma = system: SK-MEL-28 melanoma
NCI-H522 lung = system: NCI-H522 lung
A549 NSCLC = system: A549 NSCLC
OVCAR-8 ovarian = system: OVCAR-8 ovarian
SNB-75 CNS = system: SNB-75 CNS
T-47D breast = system: T-47D breast
786-0 renal = system: 786-0 renal
UACC-62 melanoma = system: UACC-62 melanoma
OVCAR-5 ovarian = system: OVCAR-5 ovarian
RXF 393 renal = system: RXF 393 renal
NCI/ADR-RES ovarian = system: NCI/ADR-RES ovarian
MALME-3M melanoma = system: MALME-3M melanoma
HCC-2998 colon = system: HCC-2998 colon
HT29 colon = system: HT29 colon
HCT-15 colon = system: HCT-15 colon
OVCAR-4 ovarian = system: OVCAR-4 ovarian
NCI-H460 lung = system: NCI-H460 lung
SW-620 colon = system: SW-620 colon
MOLT-4 leukemia = system: MOLT-4 leukemia
CCRF-CEM leukemia = system: CCRF-CEM leukemia
EKVX NSCLC = system: EKVX NSCLC
HS 578T breast = system: HS 578T breast
IGROV1 ovarian = system: IGROV1 ovarian
SK-MEL-5 melanoma = system: SK-MEL-5 melanoma
HOP-62 NSCLC = system: HOP-62 NSCLC
SN12C renal = system: SN12C renal
MCF7 breast = system: MCF7 breast
HL-60(TB) leukemia = system: HL-60(TB) leukemia
SK-MEL-2 melanoma = system: SK-MEL-2 melanoma
K-562 leukemia = system: K-562 leukemia
MDA-MB-231 breast = system: MDA-MB-231 breast
ACHN renal = system: ACHN renal
A498 renal = system: A498 renal
HOP-92 NSCLC = system: HOP-92 NSCLC
LOX IMVI melanoma = system: LOX IMVI melanoma

## Cc1cc(C)c(-c2no/c(=N\S(=O)(=O)c3ccc(Cl)cc3)o2)c(C)c1
MDA-MB-435
  TGI: > 100 µM
RPMI-8226 leukemia
  TGI: > 100 µM
DU-145 prostate
  TGI: > 100 µM
NCI-H23 lung
  TGI: > 100 µM
UACC-257 melanoma
  TGI: > 100 µM
PC-3 prostate
  TGI: > 100 µM
UO-31 renal
  TGI: > 100 µM
OVCAR-3 ovarian
  TGI: > 100 µM
M14 melanoma
  TGI: > 100 µM
SNB-19 CNS
  TGI: > 100 µM
MDA-N
  TGI: > 100 µM
SR leukemia
  TGI: 55 µM
NCI-H226 lung
  TGI: > 100 µM
SF-539 CNS
  TGI: > 100 µM
KM12 colon
  TGI: > 100 µM
SK-OV-3 ovarian
  TGI: > 100 µM
HCT-116 colon
  TGI: > 100 µM
COLO 205 colon
  TGI: > 100 µM
SF-295 CNS
  TGI: > 100 µM
SF-268 CNS
  TGI: > 100 µM
CAKI-1 renal
  TGI: > 100 µM
TK-10 renal
  TGI: > 100 µM
U251 CNS
  TGI: > 100 µM
SK-MEL-28 melanoma
  TGI: > 100 µM
NCI-H522 lung
  TGI: 71.2 µM
A549 NSCLC
  TGI: > 100 µM
OVCAR-8 ovarian
  TGI: > 100 µM
SNB-75 CNS
  TGI: > 100 µM
T-47D breast
  TGI: > 100 µM
786-0 renal
  TGI: > 100 µM
UACC-62 melanoma
  TGI: > 100 µM
OVCAR-5 ovarian
  TGI: > 100 µM
RXF 393 renal
  TGI: > 100 µM
NCI/ADR-RES ovarian
  TGI: > 100 µM
MALME-3M melanoma
  TGI: > 100 µM
HCC-2998 colon
  TGI: > 100 µM
HT29 colon
  TGI: > 100 µM
HCT-15 colon
  TGI: > 100 µM
OVCAR-4 ovarian
  TGI: > 100 µM
NCI-H460 lung
  TGI: > 100 µM
SW-620 colon
  TGI: > 100 µM
MOLT-4 leukemia
  TGI: > 100 µM
CCRF-CEM leukemia
  TGI: > 100 µM
EKVX NSCLC
  TGI: > 100 µM
HS 578T breast
  TGI: > 100 µM
IGROV1 ovarian
  TGI: > 100 µM
SK-MEL-5 melanoma
  TGI: 68 µM
HOP-62 NSCLC
  TGI: > 100 µM
SN12C renal
  TGI: > 100 µM
MCF7 breast
  TGI: 56.1 µM
HL-60(TB) leukemia
  TGI: 77.4 µM
SK-MEL-2 melanoma
  TGI: > 100 µM
K-562 leukemia
  TGI: > 100 µM
MDA-MB-231 breast
  TGI: > 100 µM
ACHN renal
  TGI: > 100 µM
A498 renal
  TGI: > 100 µM

## O=C(O)CCCc1ccc2c(c1)CC1(C2)Cc2cc3c(cc2C1)CCCC3
MDA-MB-435
  TGI: 38 µM
RPMI-8226 leukemia
  TGI: 53.2 µM
NCI-H23 lung
  TGI: 49.2 µM
UACC-257 melanoma
  TGI: > 100 µM
PC-3 prostate
  TGI: 66.8 µM
HOP-92 NSCLC
  TGI: 44.2 µM
UO-31 renal
  TGI: 34.2 µM
OVCAR-3 ovarian
  TGI: 35.2 µM
M14 melanoma
  TGI: 30.9 µM
MDA-N
  TGI: 39.9 µM
SR leukemia
  TGI: 40.7 µM
NCI-H226 lung
  TGI: 61.8 µM
SF-539 CNS
  TGI: 3.82 µM
KM12 colon
  TGI: 33.6 µM
SK-OV-3 ovarian
  TGI: 52.9 µM
HCT-116 colon
  TGI: 8.11 µM
COLO 205 colon
  TGI: 38.2 µM
SF-295 CNS
  TGI: 56.9 µM
TK-10 renal
  TGI: > 100 µM
U251 CNS
  TGI: 32.9 µM
NCI-H522 lung
  TGI: 47 µM
A549 NSCLC
  TGI: 67 µM
OVCAR-8 ovarian
  TGI: 31.4 µM
T-47D breast
  TGI: > 100 µM
786-0 renal
  TGI: 58.6 µM
UACC-62 melanoma
  TGI: > 100 µM
OVCAR-5 ovarian
  TGI: 41.3 µM
RXF 393 renal
  TGI: > 100 µM
NCI/ADR-RES ovarian
  TGI: 87.4 µM
MALME-3M melanoma
  TGI: 41.5 µM
HCC-2998 colon
  TGI: 41.4 µM
HT29 colon
  TGI: 30.4 µM
HCT-15 colon
  TGI: 23.7 µM
OVCAR-4 ovarian
  TGI: 45.6 µM
MOLT-4 leukemia
  TGI: 5.4 µM
CCRF-CEM leukemia
  TGI: 27.9 µM
EKVX NSCLC
  TGI: > 100 µM
HS 578T breast
  TGI: > 100 µM
IGROV1 ovarian
  TGI: 41.4 µM
SK-MEL-5 melanoma
  TGI: 32.7 µM
HOP-62 NSCLC
  TGI: 3.54 µM
SN12C renal
  TGI: 44.1 µM
MCF7 breast
  TGI: 94.2 µM
HL-60(TB) leukemia
  TGI: 28.2 µM
SK-MEL-2 melanoma
  TGI: 35.3 µM
K-562 leukemia
  TGI: 25.9 µM
LOX IMVI melanoma
  TGI: 32.7 µM
ACHN renal
  TGI: 33.1 µM
A498 renal
  TGI: 35.3 µM
